From PubChem BioAssay AID1963869 (Molecular Pharmacology Branch, DTP, NCI, 2024)

System: KRAS patient-derived spheroids with HUVEC/MSC, viability
Assay: Anticancer human tumor 323965-272-R-J2-PDC patient-derived pancreatic carcinoma cell line growth inhibition [KRAS2]
Conditions: for IC50: curve of first compound; for viability, T/C: stronger effect = lower value
How it was run: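 KRAS-mutant tumor cells were grown as spheroids with HUVEC endothelial cells and human MSCs as stroma. Targeted agents were tested alone and with KRAS pathway inhibitors. Doses started at or near clinical Cmax, or 10 microM, descending half-log.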

[1] = second compound 0.1 µM, first compound 0.0316 µM
[2] = second compound 0.1 µM, first compound 0.1 µM
[3] = second compound 0.1 µM, first compound 0.316 µM
[4] = second compound 0.1 µM, first compound 1 µM
[5] = second compound 0.1 µM, first compound 3.16 µM
[6] = second compound 0.1 µM, first compound 10 µM
[7] = second compound 0.316 µM, first compound 0.0316 µM
[8] = second compound 0.316 µM, first compound 0.1 µM
[9] = second compound 0.316 µM, first compound 0.316 µM
[10] = second compound 0.316 µM, first compound 1 µM
[11] = second compound 0.316 µM, first compound 3.16 µM
[12] = second compound 0.316 µM, first compound 10 µM
[13] = second compound 1 µM, first compound 0.0316 µM
[14] = second compound 1 µM, first compound 0.1 µM
[15] = second compound 1 µM, first compound 0.316 µM
[16] = second compound 1 µM, first compound 1 µM
[17] = second compound 1 µM, first compound 3.16 µM
[18] = second compound 1 µM, first compound 10 µM
[19] = second compound 3.16 µM, first compound 0.0316 µM
[20] = second compound 3.16 µM, first compound 0.1 µM
[21] = second compound 3.16 µM, first compound 0.316 µM
[22] = second compound 3.16 µM, first compound 1 µM
[23] = second compound 3.16 µM, first compound 3.16 µM
[24] = second compound 3.16 µM, first compound 10 µM
[25] = second compound 10 µM, first compound 0.0316 µM
[26] = second compound 10 µM, first compound 0.1 µM
[27] = second compound 10 µM, first compound 0.316 µM
[28] = second compound 10 µM, first compound 1 µM
[29] = second compound 10 µM, first compound 3.16 µM
[30] = second compound 10 µM, first compound 10 µM
[31] = second compound 0.1 µM, first compound 0.0001 µM
[32] = second compound 0.1 µM, first compound 0.000316 µM
[33] = second compound 0.1 µM, first compound 0.001 µM
[34] = second compound 0.1 µM, first compound 0.00316 µM
[35] = second compound 0.1 µM, first compound 0.01 µM
[36] = second compound 0.316 µM, first compound 0.0001 µM
[37] = second compound 0.316 µM, first compound 0.000316 µM
[38] = second compound 0.316 µM, first compound 0.001 µM
[39] = second compound 0.316 µM, first compound 0.00316 µM
[40] = second compound 0.316 µM, first compound 0.01 µM
[41] = second compound 1 µM, first compound 0.0001 µM
[42] = second compound 1 µM, first compound 0.000316 µM
[43] = second compound 1 µM, first compound 0.001 µM
[44] = second compound 1 µM, first compound 0.00316 µM
[45] = second compound 1 µM, first compound 0.01 µM
[46] = second compound 3.16 µM, first compound 0.0001 µM
[47] = second compound 3.16 µM, first compound 0.000316 µM
[48] = second compound 3.16 µM, first compound 0.001 µM
[49] = second compound 3.16 µM, first compound 0.00316 µM
[50] = second compound 3.16 µM, first compound 0.01 µM
[51] = second compound 10 µM, first compound 0.0001 µM
[52] = second compound 10 µM, first compound 0.000316 µM
[53] = second compound 10 µM, first compound 0.001 µM
[54] = second compound 10 µM, first compound 0.00316 µM
[55] = second compound 10 µM, first compound 0.01 µM
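Note: spheroids exposed to agents for 7 days.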
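Throughout, for viability, T/C: 100% = DMSO vehicle control viability.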

Cn1nccc1Nc1nccc(-c2cc3c(s2)C(C)(C)N(CCN2CCOCC2)C3=O)n1 + CNCc1ccccc1-c1csc(C(C)Nc2nc(C)nc3cc(OC)c(OC)cc23)c1
IC50 (second compound 0.1 µM): 1050 nM
IC50 (second compound 0.316 µM): 1360 nM
IC50 (second compound 1 µM): 3970 nM
IC50 (second compound 3.16 µM): 1660 nM
IC50 (second compound 10 µM): < 31.6 nM
viability, T/C [1]: 98.5%
viability, T/C [2]: 84.4%
viability, T/C [3]: 64.6%
viability, T/C [4]: 51.3%
viability, T/C [5]: 41%
viability, T/C [6]: 37.2%
viability, T/C [7]: 86.9%
viability, T/C [8]: 79.3%
viability, T/C [9]: 71.9%
viability, T/C [10]: 52.2%
viability, T/C [11]: 41.7%
viability, T/C [12]: 38.1%
viability, T/C [13]: 95.5%
viability, T/C [14]: 89.4%
viability, T/C [15]: 72.8%
viability, T/C [16]: 67.3%
viability, T/C [17]: 48.1%
viability, T/C [18]: 45%
viability, T/C [19]: 92.6%
viability, T/C [20]: 78.5%
viability, T/C [21]: 70%
viability, T/C [22]: 54.9%
viability, T/C [23]: 43.2%
viability, T/C [24]: 30%
viability, T/C [25]: 0.23%
viability, T/C [26]: 0.22%
viability, T/C [27]: 0.19%
viability, T/C [28]: 0.17%
viability, T/C [29]: 0.17%
viability, T/C [30]: 0.19%

CC(C)NCC(C(=O)N1CCN(c2ncnc3c2C(C)CC3O)CC1)c1ccc(Cl)cc1 (stereo not given) + CC1OCC2(CCN(c3cnc(Sc4ccnc(N)c4Cl)c(N)n3)CC2)C1N
IC50 (second compound 0.1 µM): 732 nM
IC50 (second compound 0.316 µM): 143 nM
IC50 (second compound 1 µM): < 31.6 nM
IC50 (second compound 3.16 µM): < 31.6 nM
IC50 (second compound 10 µM): < 31.6 nM
viability, T/C [1]: 84.6%
viability, T/C [2]: 72.5%
viability, T/C [3]: 57.6%
viability, T/C [4]: 44.9%
viability, T/C [5]: 42.1%
viability, T/C [6]: 32.4%
viability, T/C [7]: 60.2%
viability, T/C [8]: 54.2%
viability, T/C [9]: 40.8%
viability, T/C [10]: 29%
viability, T/C [11]: 27.9%
viability, T/C [12]: 23.6%
viability, T/C [13]: 38.5%
viability, T/C [14]: 35.3%
viability, T/C [15]: 21.5%
viability, T/C [16]: 12.7%
viability, T/C [17]: 12.6%
viability, T/C [18]: 10.4%
viability, T/C [19]: 24.8%
viability, T/C [20]: 20.3%
viability, T/C [21]: 12.6%
viability, T/C [22]: 7.8%
viability, T/C [23]: 5.77%
viability, T/C [24]: 3.98%
viability, T/C [25]: 20.8%
viability, T/C [26]: 19.1%
viability, T/C [27]: 11.5%
viability, T/C [28]: 6.63%
viability, T/C [29]: 4.73%
viability, T/C [30]: 2.87%

CC(=O)Nc1cccc(-n2c(=O)n(C3CC3)c(=O)c3c(Nc4ccc(I)cc4F)n(C)c(=O)c(C)c32)c1 + COc1cc2nc(C)nc(NC(C)c3cc(N)cc(C(F)(F)F)c3)c2cc1OC1CCOC1
IC50 (second compound 0.1 µM): 1.6 nM
IC50 (second compound 0.316 µM): 0.949 nM
IC50 (second compound 1 µM): 0.713 nM
IC50 (second compound 3.16 µM): 0.703 nM
IC50 (second compound 10 µM): 1.09 nM
viability, T/C [31]: 84.1%
viability, T/C [32]: 67.3%
viability, T/C [33]: 54.5%
viability, T/C [34]: 43.7%
viability, T/C [35]: 32.6%
viability, T/C [1]: 23.7%
viability, T/C [36]: 67.8%
viability, T/C [37]: 59.6%
viability, T/C [38]: 48.9%
viability, T/C [39]: 39.6%
viability, T/C [40]: 31.9%
viability, T/C [7]: 22%
viability, T/C [41]: 73.5%
viability, T/C [42]: 60.4%
viability, T/C [43]: 43.5%
viability, T/C [44]: 37.4%
viability, T/C [45]: 28.5%
viability, T/C [13]: 20.8%
viability, T/C [46]: 73%
viability, T/C [47]: 57.9%
viability, T/C [48]: 44.6%
viability, T/C [49]: 36.3%
viability, T/C [50]: 28.7%
viability, T/C [19]: 18.4%
viability, T/C [51]: 80.7%
viability, T/C [52]: 68.2%
viability, T/C [53]: 49.2%
viability, T/C [54]: 36.3%
viability, T/C [55]: 26.1%
viability, T/C [25]: 12.7%

CC(=O)Nc1cccc(-n2c(=O)n(C3CC3)c(=O)c3c(Nc4ccc(I)cc4F)n(C)c(=O)c(C)c32)c1 + C=CC(=O)N1CCN(c2nc(=O)n(-c3c(C)ccnc3C(C)C)c3nc(-c4c(O)cccc4F)c(F)cc23)C(C)C1
IC50 (second compound 0.1 µM): 1.15 nM
IC50 (second compound 0.316 µM): 0.987 nM
IC50 (second compound 1 µM): 0.79 nM
IC50 (second compound 3.16 µM): 1.19 nM
IC50 (second compound 10 µM): 0.295 nM
viability, T/C [31]: 67.4%
viability, T/C [32]: 62.2%
viability, T/C [33]: 49.2%
viability, T/C [34]: 40.1%
viability, T/C [35]: 36.6%
viability, T/C [1]: 23.4%
viability, T/C [36]: 60.1%
viability, T/C [37]: 57.1%
viability, T/C [38]: 49.3%
viability, T/C [39]: 41.5%
viability, T/C [40]: 33.7%
viability, T/C [7]: 20.9%
viability, T/C [41]: 61.4%
viability, T/C [42]: 58.3%
viability, T/C [43]: 46.4%
viability, T/C [44]: 40.4%
viability, T/C [45]: 32.7%
viability, T/C [13]: 27%
viability, T/C [46]: 64.1%
viability, T/C [47]: 59.5%
viability, T/C [48]: 51.4%
viability, T/C [49]: 42.1%
viability, T/C [50]: 36.7%
viability, T/C [19]: 28.2%
viability, T/C [51]: 60.9%
viability, T/C [52]: 54.3%
viability, T/C [53]: 32.6%
viability, T/C [54]: 35.8%
viability, T/C [55]: 28.1%
viability, T/C [25]: 23.8%
